This is an account of results in patent US9631001B2, “Peptide antagonists of the vasopressin-2 receptor” (COMMISSARIAT A L'ENERGIE ATOMIQUE ET AUX ENERGIES …, priority 2012, dated 2017).

Experiment in all cases: IonWorks electrophysiological assay
Common to all, as to format: cell-based
Holding throughout (settings): 1 μM
In general terms: In patch-clamp work, channel activity is measured electrically.

In one data set the target is T1, HCN4 (Homo sapiens, UniProt Q9Y3Q4).
T1 construct: expressed in transfected cells
T1 sequence (Q9Y3Q4 1-1203): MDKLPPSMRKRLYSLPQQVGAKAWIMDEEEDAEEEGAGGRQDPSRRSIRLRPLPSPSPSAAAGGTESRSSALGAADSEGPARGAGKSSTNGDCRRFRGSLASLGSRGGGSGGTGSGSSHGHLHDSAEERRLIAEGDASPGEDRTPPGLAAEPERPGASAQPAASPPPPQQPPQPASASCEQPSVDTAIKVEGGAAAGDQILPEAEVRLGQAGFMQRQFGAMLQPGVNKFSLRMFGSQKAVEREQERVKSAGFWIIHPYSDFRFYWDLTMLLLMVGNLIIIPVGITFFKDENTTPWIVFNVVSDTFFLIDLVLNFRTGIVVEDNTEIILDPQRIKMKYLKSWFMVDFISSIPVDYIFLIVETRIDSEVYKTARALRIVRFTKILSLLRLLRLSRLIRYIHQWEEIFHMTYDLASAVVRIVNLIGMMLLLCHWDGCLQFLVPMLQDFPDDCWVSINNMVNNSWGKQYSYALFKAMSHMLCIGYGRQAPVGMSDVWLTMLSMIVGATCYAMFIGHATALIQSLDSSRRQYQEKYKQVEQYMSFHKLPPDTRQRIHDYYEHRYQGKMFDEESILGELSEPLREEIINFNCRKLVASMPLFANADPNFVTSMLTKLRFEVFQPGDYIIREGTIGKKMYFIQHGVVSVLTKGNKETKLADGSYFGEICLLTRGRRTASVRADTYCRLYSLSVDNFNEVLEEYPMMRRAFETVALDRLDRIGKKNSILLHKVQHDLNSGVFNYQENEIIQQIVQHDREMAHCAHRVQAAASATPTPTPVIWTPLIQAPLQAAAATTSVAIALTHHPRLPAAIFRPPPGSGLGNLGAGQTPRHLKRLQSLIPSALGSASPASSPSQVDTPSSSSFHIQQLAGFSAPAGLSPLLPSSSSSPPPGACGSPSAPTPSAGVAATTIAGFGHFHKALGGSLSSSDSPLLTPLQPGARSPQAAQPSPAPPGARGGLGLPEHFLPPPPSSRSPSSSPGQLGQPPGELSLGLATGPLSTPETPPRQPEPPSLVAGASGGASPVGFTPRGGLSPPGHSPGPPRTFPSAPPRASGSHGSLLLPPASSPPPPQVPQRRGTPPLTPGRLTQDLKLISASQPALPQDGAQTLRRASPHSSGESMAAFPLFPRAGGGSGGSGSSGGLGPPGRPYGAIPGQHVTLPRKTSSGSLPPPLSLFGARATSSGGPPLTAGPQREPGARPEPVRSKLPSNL
The protocol: (§1) The stock solution was transferred to a master plate and into assay plates where 2 μl per well of the solution were placed. On the day of the assay, 198 μl of external solution containing the appropriate DMSO concentration was added and mixed thoroughly. This provided a 1:100 dilution. A further 1:3 dilution occurred upon addition to the cells in the IonWorks, giving a 1:300 dilution in total. On each assay plate, at least 8 wells were reserved for vehicle control (0.3% DMSO) and at least 8 wells for each positive control specific to the cell line tested. The positive controls were tested at a maximal blocking and an approximate IC50 concentration. The compounds used for positive controls: Nav1.5 100 μM and 5 mM Lidocaine, Kv4.3/KChIP2 20 μM and 500 μM Quinidine, Cav1.2 1 μM and 100 μM Nitrendipine, Kv1.5 300 μM and 10 mM 4-AP, KCNQ1/minK 10 μM and 100 μM Chromanol 293B, hERG 0.1 μM and 1 μM Cisapride, HCN4 50 μM and 3 mM Cesium, Kir2.1 20 μM and 500 μM Barium.

The next data set has as its target T2, Cav1.2 (Homo sapiens, UniProt Q13936).
T2 construct: expressed in transfected cells
The protocol: as §1

Another data set addresses T3, Kir2.1 (Homo sapiens, UniProt P63252).
T3 construct: expressed in transfected cells
T3 sequence (P63252 1-427): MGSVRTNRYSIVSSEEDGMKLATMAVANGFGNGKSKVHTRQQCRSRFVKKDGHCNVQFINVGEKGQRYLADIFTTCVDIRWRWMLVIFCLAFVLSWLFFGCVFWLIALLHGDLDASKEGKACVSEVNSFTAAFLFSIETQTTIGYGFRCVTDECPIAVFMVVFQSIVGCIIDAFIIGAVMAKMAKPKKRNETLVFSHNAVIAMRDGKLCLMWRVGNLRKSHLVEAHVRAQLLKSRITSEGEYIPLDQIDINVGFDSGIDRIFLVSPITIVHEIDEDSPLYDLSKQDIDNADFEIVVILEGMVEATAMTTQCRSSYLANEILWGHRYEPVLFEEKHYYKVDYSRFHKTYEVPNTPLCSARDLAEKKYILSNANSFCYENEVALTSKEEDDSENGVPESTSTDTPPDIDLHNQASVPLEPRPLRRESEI
The method, then:
as §1

In the next data set the target is T4, Kv4.3/KChIP2 (Homo sapiens, UniProt Q9UK17).
T4 construct: expressed in transfected cells
T4 sequence (Q9UK17 1-655): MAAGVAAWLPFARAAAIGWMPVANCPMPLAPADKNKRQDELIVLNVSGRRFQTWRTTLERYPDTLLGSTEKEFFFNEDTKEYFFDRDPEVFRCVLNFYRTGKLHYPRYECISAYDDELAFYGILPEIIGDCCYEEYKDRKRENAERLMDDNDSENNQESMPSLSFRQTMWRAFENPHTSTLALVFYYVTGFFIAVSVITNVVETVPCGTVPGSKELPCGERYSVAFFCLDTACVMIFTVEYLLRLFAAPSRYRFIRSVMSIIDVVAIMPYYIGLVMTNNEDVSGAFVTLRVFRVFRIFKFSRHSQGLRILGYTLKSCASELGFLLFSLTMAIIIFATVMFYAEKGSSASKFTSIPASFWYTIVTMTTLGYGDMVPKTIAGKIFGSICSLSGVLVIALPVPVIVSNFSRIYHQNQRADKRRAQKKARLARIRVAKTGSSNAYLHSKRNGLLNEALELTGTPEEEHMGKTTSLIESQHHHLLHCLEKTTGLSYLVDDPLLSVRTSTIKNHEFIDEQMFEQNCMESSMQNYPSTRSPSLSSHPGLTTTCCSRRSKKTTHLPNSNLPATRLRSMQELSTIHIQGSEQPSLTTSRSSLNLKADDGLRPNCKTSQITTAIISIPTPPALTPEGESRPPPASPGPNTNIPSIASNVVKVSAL
T4 sequence (Q9NS61 1-270 partner): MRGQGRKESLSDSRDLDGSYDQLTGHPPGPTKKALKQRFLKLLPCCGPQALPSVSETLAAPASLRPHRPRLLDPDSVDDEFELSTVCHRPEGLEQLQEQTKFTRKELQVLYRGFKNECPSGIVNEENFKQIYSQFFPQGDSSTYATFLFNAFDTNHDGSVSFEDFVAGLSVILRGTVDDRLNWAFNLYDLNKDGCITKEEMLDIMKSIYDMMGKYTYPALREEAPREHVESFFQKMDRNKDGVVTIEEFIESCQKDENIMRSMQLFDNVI
The protocol:
as §1

SMILES strings stand for the structures.

T2 sequence (Q13936 whole entry): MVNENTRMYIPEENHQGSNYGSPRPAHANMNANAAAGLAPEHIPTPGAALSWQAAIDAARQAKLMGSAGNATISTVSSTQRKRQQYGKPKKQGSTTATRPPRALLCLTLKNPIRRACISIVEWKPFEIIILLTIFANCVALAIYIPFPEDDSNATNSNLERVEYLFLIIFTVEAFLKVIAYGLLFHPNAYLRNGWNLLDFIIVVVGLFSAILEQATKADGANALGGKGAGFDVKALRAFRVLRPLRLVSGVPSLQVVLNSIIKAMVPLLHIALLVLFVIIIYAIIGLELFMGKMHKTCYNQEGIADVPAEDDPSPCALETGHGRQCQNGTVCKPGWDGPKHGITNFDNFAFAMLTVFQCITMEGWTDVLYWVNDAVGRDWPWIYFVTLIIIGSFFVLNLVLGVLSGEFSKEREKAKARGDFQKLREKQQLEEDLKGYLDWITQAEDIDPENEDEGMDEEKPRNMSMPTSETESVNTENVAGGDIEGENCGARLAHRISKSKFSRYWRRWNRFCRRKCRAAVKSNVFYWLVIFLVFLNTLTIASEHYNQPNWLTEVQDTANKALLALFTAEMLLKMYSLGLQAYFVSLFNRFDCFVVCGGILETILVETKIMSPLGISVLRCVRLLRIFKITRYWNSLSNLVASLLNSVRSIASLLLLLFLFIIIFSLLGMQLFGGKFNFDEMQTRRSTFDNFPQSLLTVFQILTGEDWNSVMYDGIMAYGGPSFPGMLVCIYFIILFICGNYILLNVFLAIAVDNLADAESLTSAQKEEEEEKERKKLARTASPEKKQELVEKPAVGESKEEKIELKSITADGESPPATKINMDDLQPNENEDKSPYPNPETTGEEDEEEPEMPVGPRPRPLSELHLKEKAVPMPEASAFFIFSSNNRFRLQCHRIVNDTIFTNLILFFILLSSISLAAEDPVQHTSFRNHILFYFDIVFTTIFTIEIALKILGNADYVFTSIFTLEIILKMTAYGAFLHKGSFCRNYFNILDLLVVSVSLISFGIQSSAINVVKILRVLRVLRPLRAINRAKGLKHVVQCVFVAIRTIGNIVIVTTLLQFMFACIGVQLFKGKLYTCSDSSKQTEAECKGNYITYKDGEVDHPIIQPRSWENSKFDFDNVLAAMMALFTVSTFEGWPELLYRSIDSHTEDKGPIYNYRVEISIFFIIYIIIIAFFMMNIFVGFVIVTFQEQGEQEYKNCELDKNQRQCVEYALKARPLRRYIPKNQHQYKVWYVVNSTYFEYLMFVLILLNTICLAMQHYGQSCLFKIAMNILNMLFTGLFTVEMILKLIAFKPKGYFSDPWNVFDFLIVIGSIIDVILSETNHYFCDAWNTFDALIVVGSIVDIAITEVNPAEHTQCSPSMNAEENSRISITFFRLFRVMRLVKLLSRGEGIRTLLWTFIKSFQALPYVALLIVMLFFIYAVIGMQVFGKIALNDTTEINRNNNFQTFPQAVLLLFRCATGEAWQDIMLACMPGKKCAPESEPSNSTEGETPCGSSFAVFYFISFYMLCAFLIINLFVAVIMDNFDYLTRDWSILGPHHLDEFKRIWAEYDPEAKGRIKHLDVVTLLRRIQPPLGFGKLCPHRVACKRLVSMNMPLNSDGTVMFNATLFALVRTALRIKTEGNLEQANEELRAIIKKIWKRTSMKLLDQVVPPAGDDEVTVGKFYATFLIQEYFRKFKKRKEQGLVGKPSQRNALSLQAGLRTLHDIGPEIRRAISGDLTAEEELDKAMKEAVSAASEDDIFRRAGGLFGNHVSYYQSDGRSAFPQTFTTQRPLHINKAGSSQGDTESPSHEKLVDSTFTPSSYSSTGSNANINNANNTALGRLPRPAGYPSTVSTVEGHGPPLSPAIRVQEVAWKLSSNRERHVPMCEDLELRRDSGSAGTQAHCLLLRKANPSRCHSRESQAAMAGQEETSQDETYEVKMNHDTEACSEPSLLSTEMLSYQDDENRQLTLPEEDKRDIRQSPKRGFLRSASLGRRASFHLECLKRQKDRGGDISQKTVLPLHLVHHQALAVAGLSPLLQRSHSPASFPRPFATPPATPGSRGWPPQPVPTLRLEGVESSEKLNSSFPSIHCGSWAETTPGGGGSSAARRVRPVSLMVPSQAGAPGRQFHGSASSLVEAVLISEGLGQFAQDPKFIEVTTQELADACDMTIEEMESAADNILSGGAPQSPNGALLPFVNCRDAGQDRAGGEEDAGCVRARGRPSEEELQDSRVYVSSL
T2 sequence (Q08289 whole entry partner): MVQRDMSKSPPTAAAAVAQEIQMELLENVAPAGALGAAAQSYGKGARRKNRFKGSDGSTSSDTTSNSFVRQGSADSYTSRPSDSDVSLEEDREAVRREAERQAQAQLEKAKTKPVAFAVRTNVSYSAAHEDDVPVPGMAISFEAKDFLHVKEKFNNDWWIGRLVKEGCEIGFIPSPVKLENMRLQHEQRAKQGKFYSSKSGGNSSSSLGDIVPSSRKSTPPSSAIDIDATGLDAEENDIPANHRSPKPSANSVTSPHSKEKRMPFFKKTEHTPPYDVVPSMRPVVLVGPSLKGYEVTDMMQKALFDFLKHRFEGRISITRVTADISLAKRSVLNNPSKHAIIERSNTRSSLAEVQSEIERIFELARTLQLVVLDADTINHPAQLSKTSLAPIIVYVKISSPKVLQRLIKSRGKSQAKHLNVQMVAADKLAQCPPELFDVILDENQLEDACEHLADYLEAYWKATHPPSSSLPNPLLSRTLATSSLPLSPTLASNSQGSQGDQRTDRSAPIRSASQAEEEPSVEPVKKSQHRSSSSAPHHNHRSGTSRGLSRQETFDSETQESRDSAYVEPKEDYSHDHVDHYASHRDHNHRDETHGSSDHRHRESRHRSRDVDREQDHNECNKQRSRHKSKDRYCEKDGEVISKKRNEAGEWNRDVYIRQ
T2 sequence (P54289 25-956 partner limits assumed): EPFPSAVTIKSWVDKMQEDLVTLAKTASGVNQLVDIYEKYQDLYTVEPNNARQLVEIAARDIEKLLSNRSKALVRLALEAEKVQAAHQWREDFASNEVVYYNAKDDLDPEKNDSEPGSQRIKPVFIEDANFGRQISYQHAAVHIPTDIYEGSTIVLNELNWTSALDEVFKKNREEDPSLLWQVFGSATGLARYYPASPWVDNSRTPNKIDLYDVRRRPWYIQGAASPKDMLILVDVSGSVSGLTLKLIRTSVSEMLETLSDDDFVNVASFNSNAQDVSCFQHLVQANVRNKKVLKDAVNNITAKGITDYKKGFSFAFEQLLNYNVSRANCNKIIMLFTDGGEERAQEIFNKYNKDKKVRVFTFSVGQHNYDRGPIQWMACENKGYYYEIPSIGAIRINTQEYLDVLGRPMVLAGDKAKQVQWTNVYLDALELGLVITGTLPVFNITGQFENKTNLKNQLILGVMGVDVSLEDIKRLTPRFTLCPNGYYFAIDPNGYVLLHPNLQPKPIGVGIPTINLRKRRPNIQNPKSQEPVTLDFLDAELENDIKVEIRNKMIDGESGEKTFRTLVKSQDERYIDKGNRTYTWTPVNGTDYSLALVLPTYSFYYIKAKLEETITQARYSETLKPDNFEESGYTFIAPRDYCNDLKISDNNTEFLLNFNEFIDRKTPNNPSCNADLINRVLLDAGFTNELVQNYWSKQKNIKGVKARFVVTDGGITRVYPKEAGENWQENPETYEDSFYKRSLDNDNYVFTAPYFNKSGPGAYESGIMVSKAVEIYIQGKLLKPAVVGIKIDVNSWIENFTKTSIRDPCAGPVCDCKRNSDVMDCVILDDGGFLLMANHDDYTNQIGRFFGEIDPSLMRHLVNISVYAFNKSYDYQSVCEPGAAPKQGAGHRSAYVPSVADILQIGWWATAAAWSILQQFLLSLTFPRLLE
T2 sequence (P54289 957-1103 partner limits assumed): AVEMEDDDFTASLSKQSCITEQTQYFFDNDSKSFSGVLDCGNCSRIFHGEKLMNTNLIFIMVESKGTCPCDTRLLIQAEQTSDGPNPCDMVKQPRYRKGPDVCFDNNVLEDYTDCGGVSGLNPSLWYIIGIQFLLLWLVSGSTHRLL

On to `CC[C@H](C)[C@@H]1NC(=O)[C@H]([C@@H](C)O)NC(=O)[C@H](CO)NC(=O)[C@H](Cc2ccccc2)NC(=O)[C@H](CCCNC(=N)N)NC(=O)[C@H](CC(N)=O)NC(=O)[C@H](C)NC(=O)[C@H](CC(N)=O)NC(=O)CNC(=O)[C@H](CCCCN)NC(=O)[C@@H]2CSSC[C@@H]3NC(=O)[C@@H]4CCCN4C(=O)CNC(=O)[C@@H]4CCCN4C(=O)[C@H](CCCCN)NC(=O)[C@H](C(C)C)NC(=O)[C@@H]4CCCN4C(=O)[C@H](CC(C)C)NC(=O)[C@H](CC(N)=O)NC(=O)[C@@H](NC(=O)[C@H](Cc4ccccc4)NC(=O)[C@H](CO)NC(=O)[C@@H]4CCCN4C(=O)[C@@H](N)CCCNC(=N)N)CSSC[C@@H](C(=O)N[C@H](C(=O)NCC(=O)O)C(C)C)NC(=O)[C@H]([C@@H](C)O)NC(=O)[C@H](CCCNC(=N)N)NC(=O)[C@H](CCCNC(=N)N)NC(=O)[C@H](CSSC[C@H](NC(=O)[C@H](CCCCN)NC(=O)[C@H](CC(N)=O)NC(=O)[C@H]([C@@H](C)O)NC(=O)[C@H](CCCCN)NC(=O)[C@H](CCC(N)=O)NC(=O)[C@H](CO)NC(=O)[C@H](Cc4ccc(O)cc4)NC(=O)[C@H](Cc4ccc(O)cc4)NC(=O)[C@H](Cc4ccccc4)NC(=O)[C@H](C)NC(=O)[C@H](CO)NC(=O)[C@H](Cc4ccccc4)NC(=O)[C@H](Cc4ccccc4)NC(=O)CNC(=O)[C@H](CC(N)=O)NC3=O)C(=O)N[C@@H](Cc3c[nH]cn3)C(=O)N[C@@H](CO)C(=O)N[C@@H](Cc3ccccc3)C(=O)N[C@@H]([C@@H](C)O)C(=O)N[C@@H](Cc3ccc(O)cc3)C(=O)NCC(=O)NCC(=O)N2)NC(=O)[C@H](CCCCN)NC(=O)[C@H](CCC(=O)O)NC1=O` [U-Da2a], for which the “inhibition of HCN4” value at HCN4 was “did not appear to exhibit significant inhibition”. Besides, the “inhibition of Cav1.2” value against Cav1.2 is reported as “did not appear to exhibit significant inhibition”. For the same compound, the “inhibition of Kir2.1” value against Kir2.1 is given as “did not appear to exhibit significant inhibition”. Further, the “inhibition of Kv4.3/KChIP2” value at Kv4.3/KChIP2 was “did not appear to exhibit significant inhibition”.
